Results on 65 molecules are retold here after a melting point compilation (Tetko et al.; mined from patent text by program, amines drawn as free bases though some values may be those of a salt).

Molecules are shown by their SMILES.

Molecule `CC(C)(C)OC(=O)N(O)C(=O)CCN` registered a melting point of 85 to 87 °C. `Cc1cccc(Cl)c1NC(=O)/C=C1\SCC(=O)N1c1ccccc1` yielded a melting point of 213 to 214 °C. The molecule `COc1ccc(CC(=O)O)cc1OCCc1ccccc1` had a melting point of 88 to 89 °C.

Turning to `CN1CCN(c2cccc3ccc(O)cc23)CC1`, the melting point is 112 °C.

Regarding `CN(C)C1(c2ccccc2)CCC(=CC(=O)NCCCc2ccccc2)CC1` (stereo not given), the melting point lay in the range of 140 to 142 °C.

Consider `O=S1(=O)NCN(C2CC2)c2c1ccc(Cl)c2Cl`, for which the melting point was in the range of 132 to 133 °C. In the case of `CCCCCCCCC1C=CC(/C=C/c2ccc(C(=O)O)o2)=C2N=C3CCCCC3=C21` (stereo not given), the melting point was 128 to 131 °C. Next, `Cc1cc(C(=O)N2CCCC2)ccc1[N+](=O)[O-]`: 61.3 to 61.9 °C. Next, `Cc1ccc(C(=O)N2CCC(CN3CCc4oc5ccccc5c4C3)CC2)cc1`: 140 °C. Next, `Cc1nc(-n2cc(CCCc3ccccc3)nn2)sc1C(=O)NCc1cccnc1`: 108 to 110 °C; `CN(C)C1(C#N)CCCCC1`: 36 °C. `COc1ccc(Nc2ccc(Nc3ncnc4ccsc34)cc2)cc1` came in with a melting point of 181 to 186 °C. Then `O=C(O)COCc1ccc(C=CC(=O)N2CCc3c([nH]c4ccccc34)C2c2ccc3c(c2)OCO3)cc1` (stereo not given), with 162 to 163 °C; and `COC(=O)CCc1oc(-n2ccnc2SC)nc1-c1ccc(Cl)cc1`, with 88 to 89 °C.

`N#CSCC(=O)c1ccc(Br)cc1` showed a melting point of 148 to 149 °C.

As to `CCCOc1cc(C(=O)O)cc(N)c1C(=O)c1ccccc1`, the melting point is 220 to 222 °C. In the case of `CCCc1ccc(O)c(NC(=O)C(=O)OCC)c1`, the melting point lay in the range of 155 to 160 °C. For the molecule `CCc1cc(Oc2ccc([C@H](O)[C@@H](Cc3cccc(OC(F)(F)C(F)F)c3)C(=O)O)cc2)ccc1Cl` (racemic), the melting point lay within 75 to 76 °C. Molecule `C/C(=C(\C#N)C(N)=S)N1CCCN(c2ccc(F)c(Cl)c2)CC1` gave a melting point of 148 to 150 °C. The molecule `CCCOCCN(CC)c1ccc(-c2ccc3c(c2)C=C(C(=O)O)CCN3C=O)cc1` gave a melting point of 169 to 171 °C.

On to `COC(=O)c1c(OC)ccc([N+](=O)[O-])c1OC`, for which the melting point fell in the range of 77 to 78 °C.

On to `CN(C)C=CC(=O)c1ccc(OC[C@H]2CO[C@](Cn3ccnc3)(c3ccc(Cl)cc3Cl)O2)cc1` (relative stereo), for which the melting point turned out to be 145 °C.

`O=C1c2ccccc2C(=O)N1CCN1c2ccccc2N(Cc2ccccc2)C(=O)[C@H]2CCC[C@H]21` (relative stereo) registered a melting point of 142 to 143 °C. Then `CCCCCn1c2ccc(C(=O)O)cc2c2ccc(SC)cc21`, with 211 to 212 °C; and `CC(=O)c1ccc(C(=O)NC/C=C/c2ccccc2)cc1`, with 120 °C; and `CC1(C)CC(OC(=O)NNC(=O)OC2CC(C)(C)N(OC3CCCCC3)C(C)(C)C2)CC(C)(C)N1OC1CCCCC1`, with 150 to 152 °C.

Molecule `O=C(O)c1oc2ccc(Cl)cc2c1-c1ccccc1` returned a melting point of 247 to 248 °C.

Take `CCc1nc2c(cnn2CC)c(NC2CCOCC2)c1CNC(=O)c1cccc(C(=O)NCc2ccc(F)c(-c3cccc(CN4CCCCC4)c3)c2)c1`: the melting point lay within 128 to 131 °C. `CCOC(=O)c1ccc2[nH]c(C(=O)OCc3ccccc3)cc2c1` had a melting point of 123 °C. For `O=C(C1CCCCC1)N1c2ccc(F)cc2CCC1CN1CCN(c2ccccc2OCC(F)(F)F)CC1` (stereo not given), the melting point came to 51 °C. For `CC(C)(C)NCCCS(=O)(=O)O`, the melting point was more than 280 °C. Next, `NNc1ccc([N+](=O)[O-])cc1F`: 119 to 121 °C. As to `N#CC1=C(Nc2ccccc2N)CSC1`, the melting point stood at 163 °C. `CC(c1ccccc1)C(C(=O)c1ccccc1)n1cncn1` (stereo not given) yielded a melting point of 166 to 168 °C. `CS(=O)c1ccc(OCc2ccccc2)c(C=O)c1` (stereo not given) yielded a melting point of 103 to 104 °C. Next, `NNC(=O)c1cn2ccccc2n1`: 195 to 198 °C. Turning to `COc1ccc(C(=O)Nc2ccc3ccc(C=O)nc3n2)cc1`, the melting point was 194 °C.

The molecule `COc1ccc(CCC(N)CC(=O)O)cc1` (stereo not given) gave a melting point of 180 to 184 °C.

Regarding `Cc1nc(N)c2nc(C)n(NC(C)C)c2c1C`, the melting point is 203 to 205 °C. The molecule `CCn1c(=O)ccc2cnc(Nc3ccc(OCCOC)cc3)nc21` returned a melting point of 169 to 171 °C. For `CC(=O)OCC(OC(C)=O)C(OC(C)=O)C(OC(C)=O)C(C=O)OC(C)=O` (stereo not given), the melting point lay in the range of 112 to 114 °C. In the case of `c1ccc(Sc2c[nH]c3ccccc23)cc1`, the melting point is 149 to 151 °C. Molecule `COc1cc2c(cc1OCc1ccccc1)C(Sc1ccccc1)(C(N)=CC#N)C2` (stereo not given) yielded a melting point of 122 to 125 °C. Regarding `COC(=O)c1c(C=O)cccc1Oc1nc(OC)cc(OC)n1`, the melting point lay within 91 to 93 °C. Then `CCOC(=NC(=O)c1cccc2ccccc12)c1ccc(Br)cc1`, with 104 to 105 °C; and `CCOC(Cc1ccc(NCc2ccc(O)cc2)cc1)C(=O)OC` (stereo not given), with 109 to 110 °C.

Regarding `COC(=O)C(Oc1ccc(C(=O)CN2CCN(c3ccncc3)CC2)cc1)C(=O)OC`, the melting point is 115 to 116 °C. Then `CCN1C(=O)C(C)(C)C(=O)N(C)c2cc(CN(CCn3cc(C)c4occc4c3=O)Cc3cc(C)nn3C)ccc21`, with 193 to 195 °C; and `CCN(CC)C(=O)Oc1nc(-c2ccc(C)cc2)cc2ccccc12`, with 98 °C.

Turning to `O=c1sc(CO)c(C(F)(F)F)n1CC=C(Cl)Cl`, the melting point amounted to 81 °C. `COC(=O)c1cc(-c2ccc(S(C)(=O)=O)cc2)n(C2CCCCC2)n1` came in with a melting point of 108 °C. With `O=C(O)c1cc2cc(Cl)ccc2nc1N[C@@H](CC1CCCCC1)C(=O)O`, the melting point is 160 to 168 °C. For the molecule `NS(=O)(=O)c1ccc(-n2nc(C(F)(F)F)cc2-c2ccc(-c3ccco3)cc2)c(F)c1`, the melting point was 174 °C. Molecule `CCCCCCCCCCC1CN(O)C(=O)N1C` (stereo not given) returned a melting point of 47 to 48 °C.

`N#CNc1ccc(OCc2ccccc2)cc1` came in with a melting point of 105 °C. `CC(Cc1cccnc1)(NC(=O)OC1C2CC3CC(C2)CC1C3)C(=O)NC(CO)Cc1ccccc1` (stereo not given) came in with a melting point of 63 to 67 °C. The molecule `Cc1nc(N2CCCC(NCC3CC3)C2=O)sc1C(=O)NCc1ccccc1` (stereo not given) gave a melting point of 125 to 126 °C. On to `CC(=O)c1cc(S)c(Cl)cc1CC(=O)OCF`, for which the melting point fell in the range of 125 to 126 °C.

On to `CCOC(=O)c1cc2c(C)c(-c3cccc(Cl)c3)c(=O)oc2nc1C(=O)OCC`, for which the melting point fell in the range of 170 to 172 °C. `O=Cc1cn(-c2ccc(C(F)(F)F)cn2)nc1C1CCCCC1` came in with a melting point of 103 to 104 °C.

The molecule `O=C(O)CC(Br)c1ccc([N+](=O)[O-])cc1` (stereo not given) registered a melting point of 166 to 167 °C. `NC(=O)CC(C(N)=O)n1cccc1` (stereo not given) had a melting point of 158 to 165 °C.

Take `COc1ccc(COc2nc(Cl)c(C(C)C)c(OCc3ccc(OC)cc3)n2)cc1`: the melting point was in the range of 69 to 70 °C. Then `C=CCN[C@H]1CC(C(=O)OCC)=C[C@@H](OC(CC)CC)[C@@H]1NC(C)=O`, with 100 to 104 °C; and `O=CCCCCCN1C(=O)c2ccccc2C1=O`, with 69 to 71 °C.

As usually defined, the melting point is the temperature, or range, at which the solid turns liquid.
